Assay results as given in US9260504B2, “N- and C-terminal substituted antagonistic analogs of GH-RH” (University of Miami, priority 2008, dated 2016).
Marks after values point to notes of the source that are not given here.

Legend:
[1] = system: PC-3 human hormone-independent prostate cancer; assay: PC-3 human prostate cancer xenografts in nude mice, Experiment 1; assay type: in vivo; conditions: 10 μg/day s.c., daily for 35 days; means±S.E.
Experimental: (§1) Male nude mice were implanted s.c. with 3 mm^3 pieces of PC-3 human hormone-independent prostate cancer tissue on both flanks. When tumors reached a volume of approx. 50 mm^3, the mice were divided into 4 experimental groups with 8 to 10 animals in each group and received single daily injections for 35 days as follows: 1. Control (vehicle solution); 2. JMR-132 (10 μg/day s.c.); 3. Peptide 1109 (10 μg/day s.c.); 4. Peptide 11111 (10 μg/day s.c.); Tumor volumes were measured once a week. The experiment was ended on day 35 by sacrificing the mice under Isoflurane anesthesia. Resulting tumors were cleaned, weighed, and snap-frozen until further analyses. Statistical analyses of the measurement results were done by two-tailed t-test, p<0.05 being considered significant. Data are presented as the means±S.E.

[2] = system: MDA-MB-231 human estrogen independent breast cancer; assay: MDA-MB-231 human estrogen independent breast cancer xenografts in nude mice; assay type: in vivo; conditions: 5 μg/day s.c., 28 days
Experimental: Female nude mice were xenografted s.c. with MDA-MB-231 tumor tissue from donor animals. When tumors had grown to a mean volume of approximately 50 mm^3, the mice were randomly assigned into 2 experimental groups with 10 animals in each group and received single daily injections for 28 days as follows: 1. Control (vehicle solution); 2. Peptide 1109 (5 μg/day s.c.). Tumor volumes were measured once a week. The experiment was ended on day 28 by sacrificing the mice under Isoflurane anesthesia. Resulting tumors were cleaned, weighed, and snap-frozen until further analyses. Statistical analyses of the measurement results were done by two-tailed t-test, p<0.05 being considered significant.

[3] = system: SK-Hep-1 human hepatocellular cancer; assay: SK-Hep-1 human hepatocellular cancer xenografts in nude mice; assay type: in vivo; conditions: for Tumor volume (mm^3) on day 135: means±S.E.; for Tumor weights (mg): tumors removed at autopsy
Experimental: SK-Hep-1 cancers were transplanted s.c. into both flank areas of 66 female nude mice, and allowed to grow for 47 days before starting the treatment with GH-RH antagonists. The mice were randomly assigned into 4 experimental groups with 8 animals in each group and received single daily injections for 135 days as follows: 1. Control (vehicle solution); 2. JMR-132 (10 μg/day s.c.); 3. Peptide 1109 (5 μg/day s.c.); 4. Peptide 1109 (10 μg/day s.c.). Tumor volumes were measured once a week. The experiment was ended on day 135 by sacrificing the mice under Isoflurane anesthesia. Resulting tumors were cleaned, weighed, and snap-frozen until further analyses. Statistical analyses of the measurement results were done by two-tailed t-test, p<0.05 being considered significant. Data are presented as the means±S.E.

[4] = system: H-460 human non-small cell lung cancer; assay: H-460 human non-SCLC xenografts in nude mice, Experiment 1; assay type: in vivo; conditions: 10 μg/day s.c., 28 days; means±S.E.
Experimental: Male nude mice were implanted s.c. with 3 mm^3 pieces of H-460 human non-SCLC tumor tissue on both flanks. When tumors had grown to a mean volume of approximately 90 mm^3, the mice were randomly assigned into 4 experimental groups with 10 animals in each group and received single daily injections for 28 days as follows: 1. Control (vehicle solution); 2. JMR-132 (10 μg/day s.c.); 3. Peptide 1109 (10 μg/day s.c.); 4. Peptide 11111 (10 μg/day s.c.). Tumor volumes were measured once a week. The experiment was ended on day 28 by sacrificing the mice under Isoflurane anesthesia. Resulting tumors were cleaned, weighed, and snap-frozen until further analyses. Statistical analyses of the measurement results were done by two-tailed t-test, p<0.05 being considered significant. Data are presented as the means±S.E.

[5] = system: PC-3 human hormone-independent prostate cancer; assay: PC-3 human prostate cancer xenografts in nude mice, Experiment 2; assay type: in vivo
Experimental: as §1
Experiment 2 was similar to Experiment 1. Experiment 2 was started when PC-3 tumors had grown to approximately 50 mm^3 in volume. At this time, the animals were divided into 5 experimental groups with 8 animals in each group, and received single daily injections for 14 days as follows: 1. Control (vehicle solution); 2. JMR-132 (10 μg/day s.c.); 3. Peptide 1109 (5 μg/day s.c.); 4. Peptide 11109 (5 μg/day s.c.); 5. Peptide 11109 (2 μg/day s.c.). Further details of Experiment 2 are the same as for Experiment 1

[6] = system: NCI-N87 human gastric cancer; assay: NCI-N87 human gastric cancer xenografts in nude mice; assay type: in vivo; conditions: 10 μg/day s.c.
Experimental: NCI-N87 cancers were transplanted s.c. into both flank areas of 30 female nude mice. The mice were randomly assigned into 4 experimental groups with 6 to 9 animals in each group and received single daily injections for 77 days as follows: 1. Control (vehicle solution); 2. JMR-132 (10 μg/day s.c.); 3. Peptide 1109 (10 μg/day s.c.); 4. Peptide 11479 (10 μg/day s.c.). Tumor volumes were measured once a week. The experiment was ended on day 77 by sacrificing the mice under Isoflurane anesthesia. Resulting tumors were cleaned, weighed, and snap-frozen until further analyses. Statistical analyses of the measurement results were done by two-tailed t-test, p<0.05 being considered significant. Data are presented as the means±S.E.

[7] = system: rat anterior pituitary adenylate cyclase; conditions: cited from earlier work
GH secretion = conditions: cited from earlier work

Substance	Tumor growth after 5 weeks (%) [1] [%]	Inhibition of the growth of MDA-MB-231 human breast cancers [2]	Tumors with total regression ([3]; 5 μg/day s.c., 135 days)	Tumor volume (mm^3) on day 135 ([3]; 5 μg/day s.c., 135 days) [mm^3]	Tumor weights (mg) ([3]; 5 μg/day s.c.)	Inhibition of SK-Hep-1 hepatic cancer growth compared with reference peptide JMR-132 ([3]; 5 μg/day vs JMR-132 10 μg/day, 135 days)	Tumors with total regression ([3]; 10 μg/day s.c., 135 days)	Tumor volume (mm^3) on day 135 ([3]; 10 μg/day s.c., 135 days)	Tumor weights (mg) ([3]; 10 μg/day s.c.)	Tumor growth after 4 weeks (%) [4] [%]	Tumor growth after 2 weeks (%) ([5]; 5 μg/day s.c., 14 days)	Inhibition of PC-3 tumor growth compared with reference peptide JMR-132 ([5]; Peptide 1109 5 μg/day, Peptide 11109 5 and 2 μg/day, JMR-132 10 μg/day, 14 days)	Inhibition (%) ([5]; tumor growth after 2 weeks, 5 μg/day s.c.)	Number of regressing tumors ([6]; 77 days)	Tumor growth after 77 days (%) ([6]; 77 days, means±S.E.)	Tumor weights ([6]; day 77, means±S.E.) [mg]	Tumor doubling time ([6]; calculated without the regressing tumors) [days]	Effect on activation of adenylate cyclase by hGH-RH(1-29)NH2 [7]	Effect on GH levels (GH secretion; a patient with acromegaly)	Effect on nocturnal GH secretion (GH secretion; normal subjects, 400 μg/kg)
[PhAc^0-Tyr^1, D-Arg^2, Cpa^6, Ala^8, Har^9, Tyr(Me)^10, His^11, Abu^15, Glu^17, His^20, Nle^27, D-Arg^28, Har^29]hGH-RH(1-29)NH2 [Peptide 1109]	1502 ± 405	about 75%	5	271 ± 98	565 ± 115 (6) mg	more potently inhibited the growth of SK-Hep-1 hepatic cancers than the reference peptide JMR-132	7	200 ± 123* mm^3	605 ± 281 (4) mg	1042 ± 181	311	inhibited the growth of PC-3 tumors more potently than reference peptide JMR-132	56.58	6	225 ± 59	170 ± 52	93.6 ± 30.7	–	–	–
[Ac-Tyr^1,D-Arg^2]hGH-RH(1-29)NH2 [standard antagonist]	–	–	–	–	–	–	–	–	–	–	–	–	–	–	–	–	–	prevent the activation of rat anterior pituitary adenylate cyclase	reduced GH levels	eliminated nocturnal GH secretion
